Test results: patent publication US5208344A, “Naphthalenepropionic acid derivatives as anti-inflammatory/antiallergic agents” (American Home Products Corporation, priority 1991, dated 1993)
Structures can show the parent of a compound that is named as a salt.

What was measured:
LTD4 = biological target: T1, LTD4 (Cavia porcellus, UniProt Q2NNR5); assay: inhibition of LTD4-induced bronchospasm in guinea pigs; type: in vivo; conditions: 25 mg/kg intraduodenally, 10 minutes before LTD4; guinea pig
T1 construct: isolated guinea pig trachea; from tissue; host or cells: guinea pig tracheal rings
T1 sequence (Q2NNR5 1-340): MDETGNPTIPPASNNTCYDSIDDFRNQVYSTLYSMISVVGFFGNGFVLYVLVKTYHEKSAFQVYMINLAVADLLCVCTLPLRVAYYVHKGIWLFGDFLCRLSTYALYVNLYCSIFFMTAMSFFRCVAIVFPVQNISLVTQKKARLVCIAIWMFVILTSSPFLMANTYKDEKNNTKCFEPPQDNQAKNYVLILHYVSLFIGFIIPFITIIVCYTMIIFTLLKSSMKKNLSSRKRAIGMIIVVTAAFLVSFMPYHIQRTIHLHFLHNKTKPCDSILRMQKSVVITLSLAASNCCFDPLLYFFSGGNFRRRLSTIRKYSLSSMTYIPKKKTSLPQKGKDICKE
Description: The assay of this Example measures the in vivo ability of the compounds of the invention to inhibit the bronchospasm induced in guinea pigs by the exogenously administered leukotrienes C4 and/or D4.
Male Hartley strain guinea pigs (350-600 g) are anesthetized with pentobarbital sodium (50 mg/kg, i.p.). The jugular vein is cannulated for injection of drugs and the carotid artery for monitoring blood pressure. The trachea is cannulated for artificial ventilation by a miniature Starling pump and for indirect measurement of respiratory volume changes. The animals are then pretreated with succinylcholine (2 mg/kg i.v.) and indomethacin (10 mg/kg i.v.) in trizma 8.3 buffer, 9 minutes prior to leukotriene challenge. Submaximal bronchoconstrictor responses are established in control animals by varying the dose-levels of leukotriene. Intravenous dose-levels for LTC4 range from 0.4 to 0.6 μg/kg and for LTD4 the range is from 0.3 to 0.5 μg/kg. The aerosol bronchoprovocation dose for LTC4 is generated from 1.6 μM solution and for LTD4 from a 2.0 μM solution.
Test drugs (dissolved in a solvent such as propylene glycol, polyethylene glycol 400 or saline) are administered either intraduodenally, by aerosol or intragastrically at 2 or 10 minutes before induction of bronchospasm by administration of either LTC4 or LTD4 at the predetermined dose-levels. Aerosols of soluble drugs or leukotrienes are produced in-line for 10 seconds only by actuation of an ultrasonic nebulizer (Monaghan). Aerosolized drug dosage is expressed in terms of solution concentration and by a fixed aerosol exposure time (approximately 10 seconds). Control animals receive solvent (2 ml/kg i.d. or appropriate aerosol) in place of drug.
Respiratory volume changes are determined by a calibrated piston whose travel is recorded, via a linear transducer, on a Beckman Dynograph recorder. Maximal bronchoconstrictor volume is determined by clamping off the trachea at the end of the experiment. Overflow volumes at 1,3 and 5 minutes are obtained from the recorded charts.
Area under the volume overflow curve (AUC) is estimated, using the overflow values at 1,3 and 5 minutes, and expressed as a percentage of the maximal overflow AUC (equation 1): [formula] Drug effects are reported as percent inhibition of % max AUC values obtained from appropriate control animals (equation 2): [formula]
Student's t-test for unpaired data is used to determine statistical signifiance (p<0.05). IC50 values can also be determined by inverse prediction from linear regression liens through points between 10 and 90% inhibition.

5-lipoxygenase = biological target: T2, 5-lipoxygenase (Rattus norvegicus, UniProt P12527); assay: inhibition of 5-HETE synthesis by rat glycogen elicited polymorphonuclear leukocytes; type: cell-based; conditions: 10 μM, rat PMN, negative = potentiation of 5-HETE synthesis; for inhibition at 10 µM: read-out: % Inhibition of 5-LO (as 5-HETE)
T2 construct: Peritoneal PMN are obtained from female Wistar rats (150-250 g); endogenous in cells; host or cells: rat glycogen-elicited peritoneal polymorphonuclear leukocytes, intact
T2 sequence (P12527 1-673): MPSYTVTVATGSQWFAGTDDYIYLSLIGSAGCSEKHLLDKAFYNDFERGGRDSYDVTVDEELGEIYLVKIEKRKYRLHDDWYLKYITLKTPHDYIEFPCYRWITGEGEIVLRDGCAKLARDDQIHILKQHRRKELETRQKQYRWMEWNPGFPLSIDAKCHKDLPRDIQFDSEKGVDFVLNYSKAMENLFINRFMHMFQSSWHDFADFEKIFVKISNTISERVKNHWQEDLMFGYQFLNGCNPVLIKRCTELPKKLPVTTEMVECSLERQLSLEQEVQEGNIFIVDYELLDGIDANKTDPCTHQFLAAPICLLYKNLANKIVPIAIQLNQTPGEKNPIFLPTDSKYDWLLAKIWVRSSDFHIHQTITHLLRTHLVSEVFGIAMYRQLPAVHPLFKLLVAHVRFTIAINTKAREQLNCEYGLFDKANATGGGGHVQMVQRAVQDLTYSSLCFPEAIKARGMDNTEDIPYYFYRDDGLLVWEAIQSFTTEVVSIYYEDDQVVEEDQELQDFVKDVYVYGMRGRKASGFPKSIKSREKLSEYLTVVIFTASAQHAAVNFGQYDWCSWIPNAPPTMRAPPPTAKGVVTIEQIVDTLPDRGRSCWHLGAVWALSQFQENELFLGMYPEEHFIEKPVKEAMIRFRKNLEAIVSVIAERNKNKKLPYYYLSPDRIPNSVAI
In short: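 Peritoneal PMN from female Wistar rats given i.p. glycogen 24 h earlier were preincubated with compound for 10 min at 37° C (2×10^7 cells/ml, 10 mM L-cysteine). They were then stimulated 10 min with 10 μM A23187 plus 0.5 μM [14C]arachidonic acid. 5-HETE was separated by TLC and quantified by scintillation.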

carrageenan paw edema = assay: rat carrageenan paw edema assay; type: in vivo; conditions: 50 mg/kg peroral, 1 hour prior to carrageenan; rat
Description: The compounds of the invention are further tested in the rat carrageenan paw edema assay to determine their ability to inhibit the acute inflammatory response.
140-180 gm male Sprague-Dawley rats, in groups of 6 animals are injected subcutaneously in the right paw with 0.1 ml of 1% carrageenan at zero time. Mercury plethysmographic readings (ml) of the paw are made at zero time and 3 hours later. Test compounds are suspended or dissolved in 0.5% methylcellulose and given perorally 1 hour prior to carrageenan administration.
The increase in paw volume (edema in ml.) produced by the carrageenan is measured. […] Unpaired Student's t-test is used to determine statistical significance.

cyclooxygenase = assay: inhibition of synthesis of cyclooxygenase products TxB2 and PGE2 (rat polymorphonuclear leukocytes); type: cell-based; conditions: 10 μM, rat PMN; for % Inhibition of CO (as PGE2): negative = potentiation of PGE2 synthesis
In short: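 Glycogen-elicited peritoneal PMN from female Wistar rats, 2×10^7 cells/ml in HBSS with Ca^++, Mg^++ and 10 mM L-cysteine, preincubated with compound 10 min at 37° C. Stimulated 10 min with A23187 (10 μM) plus 0.5 μM [14C] arachidonic acid; TxB2 and PGE2 quantified by TLC, autoradiography and scintillation counting.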

[1] = tested on: ovalbumin-induced bronchoconstriction; assay: inhibition of antigen (ovalbumin)-induced bronchoconstriction in anesthetized guinea pigs; type: in vivo; conditions: orally administered 4 hours before induction, guinea pig, 240 min
Description: The compounds of the invention are tested to measure their in vivo ability to inhibit the bronchoconstriction induced in anesthetized guinea pigs by exogenously administered antigen.
Male Hartley guinea pigs (400-700 gm) are sensitized three weeks prior to antigen (ovalbumin-OA) challenge as follows: each guinea pig is given two intramuscular injections--0.35 ml of Grade V OA, 50 mg/ml, into each hindlimb.
Guinea pigs, fasted overnight but allowed water adlibitum, are anesthetized with 1.2 g/kg of urethane (intraperitoneal). Supplemental does of […] of urethane are administered intraperitoneally as needed. One carotid artery and one jugular vein are cannulated to allow for the monitoring of blood pressure and the administration of drugs, respectively. A duodenal cannula is inserted for intraduodenal dosing studies. The trachea of each animal is cannulated and connected to a Harvard respirator. […] Respiratory overflow pressure is measured from a side arm off the tracheal cannula which is connected via a Gould or Beckman pressure transducer to a suitable strip chart recorder. […]
Test compounds are administered intravenously, perorally, or intraduodenally at appropriate times prior to OA challenge. […] Control experiments are used to determine the effects of solvents on the measured parameters, and test data is corrected for any significant solvent effects.
Bronchoconstriction is assessed as increases in respiratory overflow pressure (cm H2 O). Changes in blood pressure (mm Hg) are also recorded.
Test compound-induced changes in the respiratory overflow pressure are assessed as percent changes from control experiments. […] The net change in overflow pressure is measured 5 minutes after antigen challenge and is calculated as follows. […] The percent change value for the drug treated group versus the control group is calculated as follows: […]

[2] = tested on: acute gastroirritation induced by naproxen; assay: cytoprotective activity against NSAID (naproxen)-induced acute gastroirritation in rats; type: in vivo, rat; conditions: drug 100 mg/kg peroral 1 hour before naproxen 25 mg/kg
Excerpt: The assay of Example 44 is also used to measure the cytoprotective activity of the compounds against acute gastroirritation induced by a nonsteroidal anti-inflammatory drug (NSAID).

SMILES	% Inhibition (LTD4-induced bronchospasm) (LTD4)	inhibition at 10 µM (5-lipoxygenase)	% Inhibition at 50 mg/kg (peroral) (carrageenan paw edema)	% Inhibition of CO (as TxB2) (cyclooxygenase)	% Inhibition of CO (as PGE2) (cyclooxygenase)	ED50 (ovalbumin-induced bronchoconstriction) [1]	% of Rats With Lesions [2]	Comments (protection) [2]	% Inhibition of 5-LO (as 5-HETE) (5-lipoxygenase; sodium salt)	ED50 (ovalbumin-induced bronchoconstriction) ([1]; sodium salt)	% Inhibition of CO (as PGE2) (cyclooxygenase; sodium salt)
CC(C(=O)O)c1ccc2cc(OCc3ccccn3)ccc2c1 (stereo not drawn) [Example 4, α-Methyl-6-(2-pyridinylmethoxy)-2-naphthaleneacetic acid]	52%	82%	30%	12%	18%	–	–	–	–	–	–
C[C@H](C(=O)O)c1ccc2cc(OCc3ccc4ccccc4n3)ccc2c1 [Example 7, S-(α)-α-Methyl-6-(2-quinolinylmethoxy)-2-naphthaleneacetic acid]	–	100%	–	–	-17%	100 mg/kg	87.5%	no protection	–	–	–
C[C@H](C(=O)O)c1ccc2cc(OCc3ccc4ccccc4n3)ccc2c1 [Example 16, S-(+)-α-Methyl-6-(2-quinolinylmethoxy)-2-naphthaleneacetic acid, sodium salt]	–	–	–	–	–	–	–	–	100%	15 mg/kg	-13%
